Laboratory results published in article PMC10636171 (Cell Death & Disease, 2023).

What was measured:
Assay in all cases: HTRF/ADP-Glo kinase selectivity panel
Format in all cases: biochemical
Conditions in all cases: 500 nM, read-out: 1D228(%inhibition)@500nM
ABL1 = biological target: T1, ABL1 (Homo sapiens, UniProt P00519)
T1 construct: purchased Invitrogen (c-Met, TRKA, TRKB, TRKC)
Protocol: (§1) The compound was serial diluted from 10 mM stock in DMSO, dilute the test compound to 0.1 mM (200 times the specified test concentration). 2 × ATP & Substrate solution and 2 × kinase & Metal solution were prepared using assay buffer; Transfer 25 nL compound to 384 assay plate by Echo 655; After centrifugation, add 2.5 μL 2 × kinase/metal ion solution 384 assay plate, and incubate at 25 °C for 10 min. 2 × XL665 & Antibody solution were prepared with detection buffer; 5 μL of Kinase Detection Reagent was added to the well, and incubated for 60 min at 25 °C; The fluorescence signals of 620 nm (Cryptate) and 665 nm (XL665) were read by microtiter plate reader; […]

ABL2 = biological target: T2, ABL2 (Homo sapiens, UniProt P42684)
T2 construct: purchased Invitrogen (c-Met, TRKA, TRKB, TRKC)
Protocol: as §1

AXL = biological target: T3, AXL (Homo sapiens, UniProt P30530)
T3 construct: purchased Invitrogen (c-Met, TRKA, TRKB, TRKC)
Protocol: as §1

BMX = biological target: T4, BMX (Homo sapiens, UniProt P51813)
T4 construct: purchased Invitrogen (c-Met, TRKA, TRKB, TRKC)
Protocol: as §1

CSK = biological target: T5, CSK (Homo sapiens, UniProt P41240)
T5 construct: purchased Invitrogen (c-Met, TRKA, TRKB, TRKC)
Protocol: as §1

DDR1 = biological target: T6, DDR1 (Homo sapiens, UniProt Q08345)
T6 construct: purchased Invitrogen (c-Met, TRKA, TRKB, TRKC)
Protocol: as §1

DDR2 = biological target: T7, DDR2 (Homo sapiens, UniProt Q16832)
T7 construct: purchased Invitrogen (c-Met, TRKA, TRKB, TRKC)
Protocol: as §1

EGFR = biological target: T8, EGFR (Homo sapiens, UniProt P00533)
T8 construct: purchased Invitrogen (c-Met, TRKA, TRKB, TRKC)
Protocol: as §1

EPHA3 = biological target: T9, EPHA3 (Homo sapiens, UniProt P29320)
T9 construct: purchased Invitrogen (c-Met, TRKA, TRKB, TRKC)
Protocol: as §1

EPHA5 = biological target: T10, EPHA5 (Homo sapiens, UniProt P54756)
T10 construct: purchased Invitrogen (c-Met, TRKA, TRKB, TRKC)
Protocol: as §1

EPHA6 = biological target: T11, EPHA6 (Homo sapiens, UniProt Q9UF33)
T11 construct: purchased Invitrogen (c-Met, TRKA, TRKB, TRKC)
T11 sequence (Q9UF33 23-1036): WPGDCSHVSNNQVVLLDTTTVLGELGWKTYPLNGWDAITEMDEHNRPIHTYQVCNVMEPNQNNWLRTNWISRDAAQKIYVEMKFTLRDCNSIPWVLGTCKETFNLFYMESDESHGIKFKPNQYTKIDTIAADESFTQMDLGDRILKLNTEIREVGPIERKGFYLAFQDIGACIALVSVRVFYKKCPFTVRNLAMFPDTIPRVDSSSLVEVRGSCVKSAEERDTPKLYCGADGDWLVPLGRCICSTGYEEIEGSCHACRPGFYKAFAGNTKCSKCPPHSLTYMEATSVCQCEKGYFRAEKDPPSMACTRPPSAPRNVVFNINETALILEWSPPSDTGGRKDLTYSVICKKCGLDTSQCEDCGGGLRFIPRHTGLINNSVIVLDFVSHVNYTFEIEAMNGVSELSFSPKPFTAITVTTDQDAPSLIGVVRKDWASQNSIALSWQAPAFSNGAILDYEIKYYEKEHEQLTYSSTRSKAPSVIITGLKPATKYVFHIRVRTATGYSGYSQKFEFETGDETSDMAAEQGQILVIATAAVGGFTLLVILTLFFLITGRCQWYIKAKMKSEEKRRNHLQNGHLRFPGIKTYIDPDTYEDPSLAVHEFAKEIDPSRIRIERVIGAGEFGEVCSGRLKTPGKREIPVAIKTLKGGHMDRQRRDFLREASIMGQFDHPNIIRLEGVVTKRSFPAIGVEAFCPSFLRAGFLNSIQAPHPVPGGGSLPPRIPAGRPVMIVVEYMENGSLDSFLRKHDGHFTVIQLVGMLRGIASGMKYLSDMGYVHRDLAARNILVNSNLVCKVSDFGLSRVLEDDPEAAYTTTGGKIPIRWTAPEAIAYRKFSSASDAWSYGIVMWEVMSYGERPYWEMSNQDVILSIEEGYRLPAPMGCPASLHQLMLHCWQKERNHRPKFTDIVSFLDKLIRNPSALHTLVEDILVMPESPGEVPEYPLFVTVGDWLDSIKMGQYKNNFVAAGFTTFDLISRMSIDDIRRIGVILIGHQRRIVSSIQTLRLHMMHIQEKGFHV
Protocol: as §1

EPHA7 = biological target: T12, EPHA7 (Homo sapiens, UniProt Q15375)
T12 construct: purchased Invitrogen (c-Met, TRKA, TRKB, TRKC)
Protocol: as §1

EPHB2 = biological target: T13, EPHB2 (Homo sapiens, UniProt P29323)
T13 construct: purchased Invitrogen (c-Met, TRKA, TRKB, TRKC)
Protocol: as §1

EPHB4 = biological target: T14, EPHB4 (Homo sapiens, UniProt P54760)
T14 construct: purchased Invitrogen (c-Met, TRKA, TRKB, TRKC)
Protocol: as §1

FER = biological target: T15, FER (Homo sapiens, UniProt P16591)
T15 construct: purchased Invitrogen (c-Met, TRKA, TRKB, TRKC)
Protocol: as §1

FGFR1 = biological target: T16, FGFR1 (Homo sapiens, UniProt P11362)
T16 construct: purchased Invitrogen (c-Met, TRKA, TRKB, TRKC)
T16 sequence (P11362 22-822): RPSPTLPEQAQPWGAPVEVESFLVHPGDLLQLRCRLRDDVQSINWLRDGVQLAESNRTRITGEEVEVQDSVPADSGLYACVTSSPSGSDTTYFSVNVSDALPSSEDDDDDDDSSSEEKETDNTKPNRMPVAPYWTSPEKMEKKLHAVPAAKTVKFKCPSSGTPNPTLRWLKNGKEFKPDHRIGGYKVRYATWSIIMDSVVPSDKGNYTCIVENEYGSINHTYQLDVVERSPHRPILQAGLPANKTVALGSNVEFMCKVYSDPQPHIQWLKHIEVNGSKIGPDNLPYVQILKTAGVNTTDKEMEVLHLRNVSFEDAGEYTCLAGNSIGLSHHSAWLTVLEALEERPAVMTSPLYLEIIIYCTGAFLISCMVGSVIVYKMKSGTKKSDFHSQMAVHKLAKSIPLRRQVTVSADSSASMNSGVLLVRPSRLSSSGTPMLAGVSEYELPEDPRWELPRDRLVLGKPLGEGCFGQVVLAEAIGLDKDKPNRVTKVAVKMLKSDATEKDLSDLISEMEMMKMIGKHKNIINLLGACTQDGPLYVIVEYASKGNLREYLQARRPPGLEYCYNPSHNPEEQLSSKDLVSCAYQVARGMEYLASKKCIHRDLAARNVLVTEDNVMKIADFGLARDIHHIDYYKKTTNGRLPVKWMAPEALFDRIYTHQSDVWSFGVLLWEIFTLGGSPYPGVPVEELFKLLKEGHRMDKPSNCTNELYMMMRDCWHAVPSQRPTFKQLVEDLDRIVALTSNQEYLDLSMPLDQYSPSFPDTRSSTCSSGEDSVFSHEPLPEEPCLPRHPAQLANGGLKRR
Protocol: as §1

FGFR3 = biological target: T17, FGFR3 (Homo sapiens, UniProt P22607)
T17 construct: purchased Invitrogen (c-Met, TRKA, TRKB, TRKC)
Protocol: as §1

FGR = biological target: T18, FGR (Homo sapiens, UniProt P09769)
T18 construct: purchased Invitrogen (c-Met, TRKA, TRKB, TRKC)
Protocol: as §1

FLT1 = biological target: T19, FLT1 (Homo sapiens, UniProt P17948)
T19 construct: purchased Invitrogen (c-Met, TRKA, TRKB, TRKC)
Protocol: as §1

FLT3 = biological target: T20, FLT3 (Homo sapiens, UniProt P36888)
T20 construct: purchased Invitrogen (c-Met, TRKA, TRKB, TRKC)
Protocol: as §1

FLT4 = biological target: T21, FLT4 (Homo sapiens, UniProt P35916)
T21 construct: purchased Invitrogen (c-Met, TRKA, TRKB, TRKC)
Protocol: as §1

FRK = biological target: T22, FRK (Homo sapiens, UniProt P42685)
T22 construct: purchased Invitrogen (c-Met, TRKA, TRKB, TRKC)
Protocol: as §1

HCK = biological target: T23, HCK (Homo sapiens, UniProt P08631)
T23 construct: purchased Invitrogen (c-Met, TRKA, TRKB, TRKC)
Protocol: as §1

HER2 = biological target: T24, HER2 (Homo sapiens, UniProt P04626)
T24 construct: purchased Invitrogen (c-Met, TRKA, TRKB, TRKC)
T24 sequence (P04626 23-1255): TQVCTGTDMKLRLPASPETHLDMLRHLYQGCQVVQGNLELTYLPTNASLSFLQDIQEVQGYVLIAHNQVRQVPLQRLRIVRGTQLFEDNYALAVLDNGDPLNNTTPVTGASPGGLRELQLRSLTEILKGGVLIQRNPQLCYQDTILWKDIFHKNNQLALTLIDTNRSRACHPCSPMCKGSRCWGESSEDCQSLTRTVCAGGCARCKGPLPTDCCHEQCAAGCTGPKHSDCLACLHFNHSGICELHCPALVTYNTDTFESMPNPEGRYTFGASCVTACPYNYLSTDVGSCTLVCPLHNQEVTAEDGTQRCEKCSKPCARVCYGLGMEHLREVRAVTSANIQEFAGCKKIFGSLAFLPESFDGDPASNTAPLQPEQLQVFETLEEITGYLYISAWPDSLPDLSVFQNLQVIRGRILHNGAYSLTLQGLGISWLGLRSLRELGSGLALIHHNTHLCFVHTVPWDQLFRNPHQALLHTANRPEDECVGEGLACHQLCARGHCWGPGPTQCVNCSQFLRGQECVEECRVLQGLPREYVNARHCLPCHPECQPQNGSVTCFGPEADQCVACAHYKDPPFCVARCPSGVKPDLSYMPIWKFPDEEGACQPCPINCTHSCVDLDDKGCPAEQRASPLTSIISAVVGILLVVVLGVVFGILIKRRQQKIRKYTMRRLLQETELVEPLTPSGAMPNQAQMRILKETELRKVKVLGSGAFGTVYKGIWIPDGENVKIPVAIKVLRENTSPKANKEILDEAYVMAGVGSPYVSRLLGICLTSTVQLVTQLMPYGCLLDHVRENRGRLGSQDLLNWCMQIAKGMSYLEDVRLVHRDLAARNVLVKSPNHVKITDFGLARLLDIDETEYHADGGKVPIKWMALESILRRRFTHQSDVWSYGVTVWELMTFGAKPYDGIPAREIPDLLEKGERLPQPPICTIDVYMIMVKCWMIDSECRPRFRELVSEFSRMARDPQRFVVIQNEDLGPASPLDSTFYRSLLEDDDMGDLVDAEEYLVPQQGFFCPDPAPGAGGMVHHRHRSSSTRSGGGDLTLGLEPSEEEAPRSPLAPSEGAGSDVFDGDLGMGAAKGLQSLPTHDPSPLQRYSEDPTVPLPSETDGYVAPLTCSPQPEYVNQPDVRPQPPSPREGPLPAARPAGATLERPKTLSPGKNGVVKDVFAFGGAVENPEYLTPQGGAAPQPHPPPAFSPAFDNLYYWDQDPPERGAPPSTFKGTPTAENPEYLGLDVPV
Protocol: as §1

INSR = biological target: T25, INSR (Homo sapiens, UniProt P06213)
T25 construct: purchased Invitrogen (c-Met, TRKA, TRKB, TRKC)
Protocol: as §1

ITK = biological target: T26, ITK (Homo sapiens, UniProt Q08881)
T26 construct: purchased Invitrogen (c-Met, TRKA, TRKB, TRKC)
Protocol: as §1

JAK2 = biological target: T27, JAK2 (Homo sapiens, UniProt O60674)
T27 construct: purchased Invitrogen (c-Met, TRKA, TRKB, TRKC)
Protocol: as §1

JAK3 = biological target: T28, JAK3 (Homo sapiens, UniProt P52333)
T28 construct: purchased Invitrogen (c-Met, TRKA, TRKB, TRKC)
Protocol: as §1

KIT = biological target: T29, KIT (Homo sapiens, UniProt P10721)
T29 construct: purchased Invitrogen (c-Met, TRKA, TRKB, TRKC)
T29 sequence (P10721 26-976): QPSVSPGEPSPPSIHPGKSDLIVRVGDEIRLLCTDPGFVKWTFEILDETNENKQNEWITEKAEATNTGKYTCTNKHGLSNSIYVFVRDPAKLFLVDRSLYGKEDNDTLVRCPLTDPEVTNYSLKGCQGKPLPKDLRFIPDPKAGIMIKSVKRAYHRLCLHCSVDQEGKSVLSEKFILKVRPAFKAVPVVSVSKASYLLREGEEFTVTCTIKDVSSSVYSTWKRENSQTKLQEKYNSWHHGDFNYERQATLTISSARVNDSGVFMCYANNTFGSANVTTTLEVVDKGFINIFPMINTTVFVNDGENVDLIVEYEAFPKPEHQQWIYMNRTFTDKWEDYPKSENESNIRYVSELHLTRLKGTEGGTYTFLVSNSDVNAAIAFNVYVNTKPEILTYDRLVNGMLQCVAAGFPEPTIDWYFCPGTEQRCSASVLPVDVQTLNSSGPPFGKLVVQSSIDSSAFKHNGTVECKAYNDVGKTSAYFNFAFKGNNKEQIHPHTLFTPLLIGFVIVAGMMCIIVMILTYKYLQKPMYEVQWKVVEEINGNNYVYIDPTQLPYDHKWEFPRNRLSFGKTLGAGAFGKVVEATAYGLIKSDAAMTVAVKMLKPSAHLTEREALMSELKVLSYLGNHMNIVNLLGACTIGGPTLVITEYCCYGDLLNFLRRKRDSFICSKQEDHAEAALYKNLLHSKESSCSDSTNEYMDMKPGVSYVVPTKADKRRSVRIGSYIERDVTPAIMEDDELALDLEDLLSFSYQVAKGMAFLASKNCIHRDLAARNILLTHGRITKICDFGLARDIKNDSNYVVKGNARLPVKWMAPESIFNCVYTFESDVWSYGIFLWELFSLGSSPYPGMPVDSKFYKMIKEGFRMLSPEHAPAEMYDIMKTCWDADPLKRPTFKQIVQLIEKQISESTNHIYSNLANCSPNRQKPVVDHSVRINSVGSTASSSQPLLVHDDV
Protocol: as §1

LCK = biological target: T30, LCK (Homo sapiens, UniProt P06239)
T30 construct: purchased Invitrogen (c-Met, TRKA, TRKB, TRKC)
Protocol: as §1

LYNa = biological target: T31, LYNa (Homo sapiens, UniProt P07948)
T31 construct: purchased Invitrogen (c-Met, TRKA, TRKB, TRKC)
Protocol: as §1

LYNb = biological target: T32, LYNb (Homo sapiens, UniProt P07948)
T32 construct: purchased Invitrogen (c-Met, TRKA, TRKB, TRKC)
Protocol: as §1

PDGFRα = biological target: T33, PDGFRα (Homo sapiens, UniProt P16234)
T33 construct: purchased Invitrogen (c-Met, TRKA, TRKB, TRKC)
Protocol: as §1

PYK2 = biological target: T34, PYK2 (Homo sapiens, UniProt Q14289)
T34 construct: purchased Invitrogen (c-Met, TRKA, TRKB, TRKC)
Protocol: as §1

SRM = biological target: T35, SRM (Homo sapiens, UniProt Q9H3Y6)
T35 construct: purchased Invitrogen (c-Met, TRKA, TRKB, TRKC)
Protocol: as §1

TEC = biological target: T36, TEC (Homo sapiens, UniProt P42680)
T36 construct: purchased Invitrogen (c-Met, TRKA, TRKB, TRKC)
Protocol: as §1

TIE2 = biological target: T37, TIE2 (Homo sapiens, UniProt Q02763)
T37 construct: purchased Invitrogen (c-Met, TRKA, TRKB, TRKC)
Protocol: as §1

TRKB = biological target: T38, TRKB (Homo sapiens, UniProt Q16620)
T38 construct: purchased Invitrogen
T38 sequence (Q16620 32-822): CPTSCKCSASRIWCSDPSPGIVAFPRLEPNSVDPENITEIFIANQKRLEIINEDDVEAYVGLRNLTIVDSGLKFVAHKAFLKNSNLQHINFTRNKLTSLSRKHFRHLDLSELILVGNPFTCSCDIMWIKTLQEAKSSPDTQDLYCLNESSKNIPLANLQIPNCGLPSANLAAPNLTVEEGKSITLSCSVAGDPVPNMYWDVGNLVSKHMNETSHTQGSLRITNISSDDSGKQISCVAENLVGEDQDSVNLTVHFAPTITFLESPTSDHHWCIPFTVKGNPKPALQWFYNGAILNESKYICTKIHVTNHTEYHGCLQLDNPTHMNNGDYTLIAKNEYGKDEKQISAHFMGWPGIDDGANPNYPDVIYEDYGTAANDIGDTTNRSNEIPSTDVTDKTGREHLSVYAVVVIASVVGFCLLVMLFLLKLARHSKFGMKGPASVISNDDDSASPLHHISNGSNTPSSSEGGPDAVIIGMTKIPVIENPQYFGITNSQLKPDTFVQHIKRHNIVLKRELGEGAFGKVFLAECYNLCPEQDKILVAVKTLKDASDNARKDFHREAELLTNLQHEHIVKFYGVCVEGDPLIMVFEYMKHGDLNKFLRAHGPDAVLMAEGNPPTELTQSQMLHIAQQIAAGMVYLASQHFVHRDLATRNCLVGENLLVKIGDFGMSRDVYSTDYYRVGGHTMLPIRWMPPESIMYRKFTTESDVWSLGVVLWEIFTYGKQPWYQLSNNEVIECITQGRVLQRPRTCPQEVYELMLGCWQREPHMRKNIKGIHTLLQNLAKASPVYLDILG
Protocol: as §1

TYRO3 = biological target: T39, TYRO3 (Homo sapiens, UniProt Q06418)
T39 construct: purchased Invitrogen (c-Met, TRKA, TRKB, TRKC)
Protocol: as §1

ZAP70 = biological target: T40, ZAP70 (Homo sapiens, UniProt P43403)
T40 construct: purchased Invitrogen (c-Met, TRKA, TRKB, TRKC)
Protocol: as §1

SMILES: [2H][C@@](C)(c1cccc(-c2ncc(OCC3CCN(C)CC3)cn2)c1)n1nc(-c2cccc(C#N)c2)ccc1=O [1D228]
- inhibition at 0.5 µM (ABL1): 6.37%
- inhibition at 0.5 µM (ABL2): 4.45%
- inhibition at 0.5 µM (AXL): 89.2%
- inhibition at 0.5 µM (BMX): 5.12%
- inhibition at 0.5 µM (CSK): -3.07%
- inhibition at 0.5 µM (DDR1): -11.8%
- inhibition at 0.5 µM (DDR2): -3.98%
- inhibition at 0.5 µM (EGFR): 1.17%
- inhibition at 0.5 µM (EPHA3): -11.8%
- inhibition at 0.5 µM (EPHA5): 3.74%
- inhibition at 0.5 µM (EPHA6): -1.78%
- inhibition at 0.5 µM (EPHA7): -1.36%
- inhibition at 0.5 µM (EPHB2): -3.54%
- inhibition at 0.5 µM (EPHB4): 5.08%
- inhibition at 0.5 µM (FER): -13.3%
- inhibition at 0.5 µM (FGFR1): 1.72%
- inhibition at 0.5 µM (FGFR3): 3.05%
- inhibition at 0.5 µM (FGR): -20.7%
- inhibition at 0.5 µM (FLT1): 6%
- inhibition at 0.5 µM (FLT3): 17.9%
- inhibition at 0.5 µM (FLT4): -3.03%
- inhibition at 0.5 µM (FRK): 11.3%
- inhibition at 0.5 µM (HCK): -4.06%
- inhibition at 0.5 µM (HER2): 8.78%
- inhibition at 0.5 µM (INSR): 18.6%
- inhibition at 0.5 µM (ITK): 1.6%
- inhibition at 0.5 µM (JAK2): 1.82%
- inhibition at 0.5 µM (JAK3): 0.193%
- inhibition at 0.5 µM (KIT): -4.5%
- inhibition at 0.5 µM (LCK): 5.21%
- inhibition at 0.5 µM (LYNa): 27.3%
- inhibition at 0.5 µM (LYNb): 5.26%
- inhibition at 0.5 µM (PDGFRα): 8.21%
- inhibition at 0.5 µM (PYK2): 1.14%
- inhibition at 0.5 µM (SRM): 2.66%
- inhibition at 0.5 µM (TEC): 8.29%
- inhibition at 0.5 µM (TIE2): -2.64%
- inhibition at 0.5 µM (TRKB): 97.1%
- inhibition at 0.5 µM (TYRO3): 4.2%
- inhibition at 0.5 µM (ZAP70): -0.66%
